What was measured:
Experiment in all cases: relative viability (nuclei count vs DMSO), 5 days (fraction); higher = more cells survive
[1] = compound: COc1cc2nccc(Oc3ccc(NC(=O)C4(C(=O)Nc5ccc(F)cc5)CC4)cc3)c2cc1OC [Cabozantinib] + CCNC(=O)c1noc(-c2cc(C(C)C)c(O)cc2O)c1-c1ccc(CN2CCOCC2)cc1 [Luminespib] (partner 0.01 µM)
Outline: (§1)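 Values are medians from duplicate plates. Each reflects relative viability, defined as the nuclei count of treated wells over that of vehicle wells. Lung cancer cell lines in 1536-well plates were pin-tool dosed one day after seeding with one drug alone or with a fixed anchor-drug dose plus five library-drug doses (not always all listed) in √10 steps, then fixed, stained and imaged at 4× after 5 days.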

Kobe2602 + Tozasertib = compound: C1=CC(=CC=C1NC(=S)NNC2=C(C=C(C=C2[N+](=O)[O-])C(F)(F)F)[N+](=O)[O-])F [Kobe2602] + Cc1cc(Nc2cc(N3CCN(C)CC3)nc(Sc3ccc(NC(=O)C4CC4)cc3)n2)n[nH]1 [Tozasertib] (partner 0.1 µM)
Outline: as §1

Zosuquidar + AZD7762 = compound: O[C@@H](COc1cccc2ncccc12)CN1CCN([C@@H]2c3ccccc3[C@@H]3[C@H](c4ccccc42)C3(F)F)CC1 [Zosuquidar] + NC(=O)Nc1cc(-c2cccc(F)c2)sc1C(=O)N[C@H]1CCCNC1 [AZD7762] (partner 0.2 µM)
Outline: as §1

[2] = compound: COc1cc2nccc(Oc3ccc(NC(=O)C4(C(=O)Nc5ccc(F)cc5)CC4)cc3)c2cc1OC [Cabozantinib] + Cc1cc(Nc2cc(N3CCN(C)CC3)nc(Sc3ccc(NC(=O)C4CC4)cc3)n2)n[nH]1 [Tozasertib] (partner 0.1 µM)
Outline: as §1

Cell Line | relative viability ([1]; first compound 0.02 µM) | relative viability ([1]; first compound 0.06325 µM) | relative viability ([1]; first compound 0.6325 µM) | relative viability ([1]; first compound 2 µM) | relative viability (Kobe2602 + Tozasertib; first compound 0.2 µM) | relative viability (Kobe2602 + Tozasertib; first compound 0.6325 µM) | relative viability (Kobe2602 + Tozasertib; first compound 2 µM) | relative viability (Kobe2602 + Tozasertib; first compound 6.325 µM) | relative viability (Kobe2602 + Tozasertib; first compound 20 µM) | relative viability (Zosuquidar + AZD7762; first compound 0.01 µM) | relative viability (Zosuquidar + AZD7762; first compound 0.03162 µM) | relative viability (Zosuquidar + AZD7762; first compound 0.1 µM) | relative viability (Zosuquidar + AZD7762; first compound 0.3162 µM) | relative viability (Zosuquidar + AZD7762; first compound 1 µM) | relative viability ([2]; first compound 0.02 µM) | relative viability ([2]; first compound 0.06325 µM) | relative viability ([2]; first compound 0.6325 µM) | relative viability ([2]; first compound 2 µM) | relative viability ([1]; first compound 0.2 µM) | relative viability ([2]; first compound 0.2 µM)
LOU-NH91 | 0.363 | 0.358 | 0.385 | 0.271 | 0.703 | 0.703 | 0.658 | 0.685 | 0.739 | 0.761 | 0.807 | 0.637 | 0.793 | 0.74 | 0.677 | 0.729 | 0.724 | 0.75 | – | –
NCI-H1355 | 0.806 | 0.852 | 0.738 | 0.871 | 0.587 | 0.597 | 0.534 | 0.534 | 0.542 | 0.777 | 0.778 | 0.733 | 0.797 | 0.86 | 0.583 | 0.66 | 0.503 | 0.356 | 0.682 | 0.502
NCI-H460 | 0.0282 | 0.0334 | 0.0351 | 0.0448 | 0.342 | 0.402 | 0.411 | 0.154 | 0.0739 | 0.54 | 0.571 | 0.6 | 0.607 | 0.509 | 0.574 | 0.57 | 0.356 | 0.0953 | 0.0334 | 0.447
NCI-H1793 | 0.591 | 0.168 | 0.202 | 0.155 | 0.279 | 0.305 | 0.292 | 0.417 | 0.278 | 0.519 | – | – | 0.516 | 0.692 | 0.663 | 0.427 | 0.257 | 0.169 | 0.144 | 0.271
NCI-H2023 | 0.839 | 0.68 | 0.641 | 0.539 | 0.253 | 0.326 | 0.244 | 0.175 | 0.157 | – | – | – | – | – | 0.401 | 0.437 | 0.232 | 0.15 | 0.635 | 0.301
NCI-H1666 | 0.968 | 1 | 1.04 | 1.06 | 0.644 | 0.61 | 0.571 | 0.604 | 0.544 | 0.852 | 0.979 | 0.752 | 0.826 | 0.862 | 0.628 | 0.644 | 0.619 | 0.673 | 1.02 | 0.622
HARA | 0.722 | 0.421 | 0.92 | 0.548 | 0.117 | 0.102 | 0.122 | 0.508 | 0.123 | 0.429 | 0.343 | 0.304 | 0.344 | 0.322 | 0.132 | 0.113 | 0.129 | 0.107 | 0.615 | 0.116
NCI-H358 | – | 0.549 | 0.322 | 0.136 | 0.0888 | 0.122 | 0.0944 | 0.109 | 0.103 | 0.55 | 0.541 | 0.492 | 0.503 | 0.43 | 0.106 | 0.0894 | 0.0924 | 0.108 | – | 0.103
NCI-H3122 | 0.111 | 0.102 | 0.0876 | 0.101 | 0.451 | 0.381 | 0.399 | 0.393 | 0.403 | 0.812 | 0.916 | 0.844 | 1.01 | 1 | 0.412 | 0.431 | 0.42 | 0.458 | 0.0937 | 0.385
SK-LU-1 | 0.225 | 0.209 | 0.192 | 0.21 | 0.31 | 0.371 | 0.333 | 0.372 | 0.357 | – | – | – | – | – | 0.414 | 0.371 | 0.342 | 0.299 | 0.207 | 0.378
COR-L23 | 0.733 | 0.823 | 0.675 | 0.658 | 0.177 | 0.172 | 0.165 | 0.157 | 0.154 | – | – | – | – | – | 0.235 | 0.212 | 0.145 | 0.137 | 0.723 | 0.194
NCI-H1563 | 0.507 | 0.52 | 0.527 | 0.531 | – | – | – | – | – | – | – | – | – | – | – | – | – | – | 0.508 | –
NCI-H2009 | 1.13 | 1.1 | 1.1 | 1.14 | 0.713 | 0.801 | 0.619 | 0.715 | 0.7 | – | – | – | – | – | 0.827 | 0.889 | 0.699 | 0.668 | 1 | 0.768
NCI-H1623 | 0.53 | 0.497 | 0.446 | 0.492 | 0.42 | 0.433 | 0.396 | 0.439 | 0.412 | – | – | – | – | – | 0.4 | 0.42 | 0.443 | 0.455 | 0.47 | 0.427
HCC-366 | – | – | – | – | 0.0819 | 0.0969 | 0.0807 | 0.0437 | 0.0481 | 0.23 | 0.227 | 0.285 | 0.369 | 0.298 | 0.705 | 0.108 | 0.065 | 0.0583 | – | 0.101
NCI-H520 | 0.257 | 0.198 | 0.237 | 0.189 | 0.519 | 0.507 | 0.402 | 0.38 | 0.481 | – | – | – | – | – | 0.52 | 0.442 | 0.392 | 0.386 | 0.249 | 0.432
NCI-H1648 | – | – | – | – | 0.465 | 0.43 | 0.468 | 0.513 | 0.393 | 0.633 | 1.13 | 0.671 | 0.538 | 0.594 | 0.704 | 0.658 | 0.59 | 0.385 | – | 0.51
NCI-H661 | 0.904 | 0.929 | 0.957 | 0.938 | 0.382 | 0.34 | 0.376 | 0.376 | 0.355 | – | – | – | – | – | 0.374 | 0.361 | 0.393 | 0.375 | 1.01 | 0.388
NCI-H1792 | – | 0.404 | 0.334 | 0.325 | – | – | – | – | – | 0.539 | 0.623 | 0.5 | 0.817 | 1.19 | – | – | – | – | 0.501 | –
NCI-H2228 | 0.162 | 0.167 | 0.122 | 0.134 | 0.19 | 0.239 | 0.246 | 0.234 | 0.219 | – | – | – | – | – | 0.342 | 0.306 | 0.29 | 0.196 | 0.175 | 0.296

From the supplement of paper PMC10307832
